The term MIC denotes the lowest concentration that inhibits growth of the organism. Read a low MIC as a more susceptible organism. The term melting point denotes the temperature, or range, at which the solid turns liquid.

Converted amounts (≈) assume the structure as drawn. “And” between values parts separate entries of the source, which are not always exact repeats. Equal entries are not always repeated.

Series [1] relates to M. smegmatis (ATCC 14468). Description: Microtiter broth dilution MIC against M. smegmatis (ATCC 14468). Type of series: cell-based. The conditions noted are these: Mycolicibacterium smegmatis, ATCC14468, 72 h, 37 °C, MTT. On the technique in general: Broth dilution looks for growth in wells or tubes with falling amounts of substance.
The subject of series [2] is human diploid embryonic lung cell line MRC-5. As to the kind of experiment: XTT cytotoxicity assay on MRC-5 cells. Type of series: cell-based. The conditions noted are these: XTT. As for the experimental part: In order to assess the cytotoxicity of these novel quinolone derivatives, the effect on the viability of a human lung fibroblast cell line MRC-5, was measured using XTT proliferation assay. […] In addition, the position of the triple bond in the side chain seems to have a significant influence on cytotoxcity which is increased in compounds with a triple bond more distant to the quinolone nucleus. This can be concluded by comparing results of 8l, 8n, 8p, and 8r having similar antimycobacterial activity on M. smegmatis but different cytotoxcity depending on triple bond position.
The cytotoxic activity of the synthetic compounds was determined by means of an XTT Cell Proliferation Kit II (Roche Diagnostics, Mannheim, Germany) using the human diploid embryonic lung cell line MRC-5 [11]. The quinolone derivatives were tested at concentrations of 100, 60, 30 and 10 µM in triplicate and the percentage of viable cells at each concentration was determined by comparing with the control.
In general terms: Tetrazolium dyes change colour on reduction, which living cells bring about.

The test system of the next series is M. fortuitum (ATCC 6841). As to the kind of experiment: Broth dilution MIC against M. fortuitum. Type of series: cell-based. The conditions noted are these: Mycolicibacterium fortuitum, ATCC6841, 72 h.
In the next series the test system is M. phlei (ATCC 11758). Description: Broth dilution MIC against M. phlei. Type of series: cell-based. The conditions noted are these: Mycolicibacterium phlei, ATCC11758, 72 h.
In the next series the test system is M. smegmatis mc^2155. As to the kind of experiment: Broth dilution MIC against M. smegmatis mc^2155. Type of series: cell-based. The conditions noted are these: Mycolicibacterium smegmatis, 72 h.

As for `CCCCCCC#CCCc1cc(=O)c2ccccc2n1CC` [Compound 8b, 1-Ethyl-2-(3'-decynyl)-4(1H)-quinolone], in series [1], the MIC is 16 µg/mL and 51.8 µM. The “Metabolic active MRC-5 cells (%)” value turned out to be 102 ± 0.85% in series [2] (10 µM), 100 ± 0.73% in series [2] (30 µM), 98.4 ± 0.77% in series [2] (60 µM) and 85.7 ± 1.96% in series [2] (100 µM).
For `CCCCCCCCC#Cc1cc(=O)c2ccccc2n1CCCC` [Compound 8i, 1-(n-Butyl)-2-(1'-decynyl)-4(1H)-quinolone], in series [1], the MIC is 4 µg/mL and 11.9 µM. Further, the “Metabolic active MRC-5 cells (%)” value in series [2] (10 µM) is 103 ± 3.13%; in series [2] (30 µM) it was 101 ± 0.81%; in series [2] (60 µM), 67.2 ± 9.90%; in series [2] (100 µM), 28.7 ± 8.95%.
With `CCCCCCCCC#Cc1cc(=O)c2ccccc2n1CCC` [Compound 8h, 1-(n-Propyl)-2-(1'-decynyl)-4(1H)-quinolone], the MIC in series [1] is 4 µg/mL and 12.4 µM. Also, the “Metabolic active MRC-5 cells (%)” value in series [2] (10 µM) is listed as 103 ± 1.38%; in series [2] (30 µM), 101 ± 2.47%; in series [2] (60 µM), 39.5 ± 3.59%; in series [2] (100 µM), 14.1 ± 7.83%.
Turning to `CC[C@@H](CO)NCCN[C@@H](CC)CO` [Ethambutol, reference compound], the MIC is 2 µg/mL and 9.8 µM in series [1]; 8 µg/mL and 39.2 µM in the series on M. fortuitum (ATCC 6841); 4 µg/mL and 19.6 µM against M. phlei (ATCC 11758); 4 µg/mL and 19.6 µM with M. smegmatis mc^2155.
Consider `CCCCCCCC#CCCc1cc(=O)c2ccccc2n1CCC` [Compound 8f, 1-(n-Propyl)-2-(3'-undecynyl)-4(1H)-quinolone], for which, in series [1], the MIC is 4 µg/mL and 11.9 µM. For the same compound, the “Metabolic active MRC-5 cells (%)” value in series [2] (10 µM) was determined as 100 ± 1.05%; in series [2] (30 µM), 101 ± 1.28%; in series [2] (60 µM) it was 91.7 ± 2.77%; in series [2] (100 µM), 70.9 ± 8.50%.
Regarding `CCCCCCCCCCCCCC#Cc1cc(=O)c2ccccc2n1C` [Compound 8t, 1-Methyl-2-(1'-pentadecynyl)-4(1H)-quinolone], in series [1], the MIC is 128 µg/mL and 351 µM. Also, the “Metabolic active MRC-5 cells (%)” value was 100 ± 1.01% in series [2] (10 µM), 100 ± 1.38% in series [2] (30 µM), 98.8 ± 1.28% in series [2] (60 µM) and 93.8 ± 0.96% in series [2] (100 µM).
As to `CCCCCCCC#CCCc1cc(=O)c2ccccc2n1C` [Compound 8d, 1-Methyl-2-(3'-undecynyl)-4(1H)-quinolone], the MIC in series [1] was 8 µg/mL and 25.9 µM. Besides, the “Metabolic active MRC-5 cells (%)” value in series [2] (10 µM) is listed as 101 ± 1.08%; in series [2] (30 µM) it was 99.8 ± 0.52%; in series [2] (60 µM), 98.7 ± 0.8%; in series [2] (100 µM) it was 97.3 ± 0.66%.
In the case of `Cn1c(/C=C/CCCCCCCCCCBr)cc(=O)c2ccccc21` [Compound 19a, 1-Methyl-2-[(E)-12-bromodec-1'-enyl]-4(1H)-quinolone], the MIC is 0.5 mg/L (≈ 1.24 µM) in series [1]; 1 µg/mL and 2.5 µM in the series with M. fortuitum (ATCC 6841); 1 µg/mL and 2.5 µM in the series with M. phlei (ATCC 11758); 1 µg/mL and 2.5 µM against M. smegmatis mc^2155.
With `CC[C@]1(O)C[C@@H]2CN(CCc3c([nH]c4ccccc34)[C@@](C(=O)OC)(c3cc4c(cc3OC)N(C)[C@H]3[C@@](O)(C(=O)OC)[C@H](OC(C)=O)[C@]5(CC)C=CCN6CC[C@]43[C@@H]65)C2)C1` [Vinblastin, reference compound], the “Metabolic active MRC-5 cells (%)” value in series [2] (0.12 µM (positive control)) is reported as 51.5 ± 2.36%.
For the compound `CCCCCCCCC#Cc1cc(=O)c2ccccc2n1CC` [Compound 8g, 1-Ethyl-2-(1'-decynyl)-4(1H)-quinolone], the MIC in series [1] is 2 µg/mL and 6.5 µM; in the series with M. fortuitum (ATCC 6841), 8 µg/mL and 25.9 µM; in the series with M. phlei (ATCC 11758), 4 µg/mL and 12.9 µM; with M. smegmatis mc^2155, 4 µg/mL and 12.9 µM. For the same compound, the “Metabolic active MRC-5 cells (%)” value in series [2] (10 µM) is given as 101 ± 0.97%; in series [2] (30 µM), 98.7 ± 2.97%; in series [2] (60 µM), 56.5 ± 2.03%; in series [2] (100 µM), 12.1 ± 4.79%.
For the compound `CCCCCCC#CCCc1cc(=O)c2ccccc2n1CCC` [Compound 8c, 1-(n-Propyl)-2-(3′-decynyl)-4(1H)-quinolone], the MIC in series [1] is 8 µg/mL and 24.8 µM. For the same compound, the “Metabolic active MRC-5 cells (%)” value is recorded as 103 ± 1.22% in series [2] (10 µM), 102 ± 0.42% in series [2] (30 µM), 100 ± 0.55% in series [2] (60 µM) and 100 ± 1.45% in series [2] (100 µM).
In the case of `CCCCCCCCCCC/C=C/c1cc(=O)c2ccccc2n1C1CC1` [Compound 22a, 1-Cyclopropyl-2-[(E)-1′-tridecenyl]-4(1H)-quinolone], the melting point lay within 86 to 88 °C. Further, in series [1], the MIC is 128 µg/mL and 351 µM.
In turn, `CCCCCCCCCCCC/C=C/c1cc(=O)c2ccccc2n1C1CC1` [Compound 22b, 1-Cyclopropyl-2-[(E)-1′-tetradecenyl]-4(1H)-quinolone] came in with a melting point of 96 to 98 °C. The MIC in series [1] was 128 µg/mL and 338 µM.
As for `CCCCCCC#CCCc1cc(=O)c2ccccc2n1C` [Compound 8a, 1-Methyl-2-(3′-decynyl)-4(1H)-quinolone], the MIC in series [1] is 32 µg/mL and 108 µM. The “Metabolic active MRC-5 cells (%)” value came to 100 ± 1.05% in series [2] (10 µM), 98.4 ± 1.07% in series [2] (30 µM), 97.5 ± 0.74% in series [2] (60 µM) and 89.3 ± 2.94% in series [2] (100 µM).
Consider `CCCCCCCCC#CCCc1cc(=O)c2ccccc2n1C` [Compound 8j, 1-Methyl-2-(3'-dodecynyl)-4(1H)-quinolone], for which the MIC in series [1] was 4 µg/mL and 12.4 µM. Besides, the “Metabolic active MRC-5 cells (%)” value is 97.6 ± 1.03% in series [2] (10 µM), 96.7 ± 1.49% in series [2] (30 µM), 95.1 ± 0.81% in series [2] (60 µM) and 95.84 ± 0.96% in series [2] (100 µM).
Consider `O=c1cc(/C=C/CCCCCCCCCCCBr)n(C2CC2)c2ccccc12` [Compound 18b, 1-Cyclopropyl-2-[(E)-13-bromotridec-1'-enyl)-4(1H)-quinolone], for which the melting point is 61 to 63 °C. In series [1], the MIC was 8 µg/mL and 18.1 µM.
For the compound `CCCCCCCC#CCCc1cc(=O)c2ccccc2n1CC` [Compound 8e, 1-Ethyl-2-(3'-undecynyl)-4(1H)-quinolone], in series [1], the MIC was 8 µg/mL and 24.8 µM. Also, the “Metabolic active MRC-5 cells (%)” value in series [2] (10 µM) is recorded as 102 ± 1.05%; in series [2] (30 µM), 101 ± 1.42%; in series [2] (60 µM), 100 ± 0.56%; in series [2] (100 µM), 100 ± 1.05%.
For the compound `Cn1c(/C=C/CCCCCCCCCCCBr)cc(=O)c2ccccc21` [Compound 19b, 1-Methyl-2-[(E)-13-bromotridec-1'-enyl)-4(1H)-quinolone], the minimum inhibitory concentration (MIC) in series [1] was 0.5 mg/L (≈ 1.19 µM); with M. fortuitum (ATCC 6841), 1 µg/mL and 2.4 µM; against M. phlei (ATCC 11758), 1 µg/mL and 2.4 µM; with M. smegmatis mc^2155, 1 µg/mL and 2.4 µM.
Take `O=c1cc(/C=C/CCCCCCCCCCBr)n(C2CC2)c2ccccc12` [Compound 18a, 1-Cyclopropyl-2-[(E)-12-bromodec-1'-enyl]-4(1H)-quinolone]: the melting point lay within 85 to 87 °C. The MIC in series [1] was 8 µg/mL and 18.6 µM.

The record behind these values is publication PMC3460366, “Synthesis and Antibacterial Evaluation of a New Series of N-Alkyl-2-alkynyl/(E)-alkenyl-4-(1H)-quinolones” (Molecules, 2012).
